Source: ChEMBL document CHEMBL4665793, “Screening and Reverse-Engineering of Estrogen Receptor Ligands as Potent Pan-Filovirus Inhibitors” (J Med Chem, 2020)
Active and inactive are the calls of the source. The rule behind the calls is not given here.

Columns and labels:
Marburgvirus [1] = test: microbe, parasite or virus in culture; settings: Orthomarburgvirus, Musoke, A549, 48 h
Zaire ebolavirus = test: microbe, parasite or virus in culture; settings: Mayinga, Zaire, 1976, A549, 48 h
in vitro [2] = settings: human, A549 cells
in vitro [3] = settings: human, A549 cells; remark: listed apart in the source
A549 = type: cell-based; settings: human
Marburgvirus [4] = type: functional, organism-based; settings: Orthomarburgvirus, Angola, A549, 24 h
[5] = biological target: T1, Estrogen receptor (Homo sapiens) (UniProt P03372); test: Agonist activity at ER-alpha in human MCF-7:WS8 cells transfected with an estrogen response element incubated for 18 hrs by luciferase reporter gene assay; type: cell-based; settings: MCF7
T1 sequence (whole entry): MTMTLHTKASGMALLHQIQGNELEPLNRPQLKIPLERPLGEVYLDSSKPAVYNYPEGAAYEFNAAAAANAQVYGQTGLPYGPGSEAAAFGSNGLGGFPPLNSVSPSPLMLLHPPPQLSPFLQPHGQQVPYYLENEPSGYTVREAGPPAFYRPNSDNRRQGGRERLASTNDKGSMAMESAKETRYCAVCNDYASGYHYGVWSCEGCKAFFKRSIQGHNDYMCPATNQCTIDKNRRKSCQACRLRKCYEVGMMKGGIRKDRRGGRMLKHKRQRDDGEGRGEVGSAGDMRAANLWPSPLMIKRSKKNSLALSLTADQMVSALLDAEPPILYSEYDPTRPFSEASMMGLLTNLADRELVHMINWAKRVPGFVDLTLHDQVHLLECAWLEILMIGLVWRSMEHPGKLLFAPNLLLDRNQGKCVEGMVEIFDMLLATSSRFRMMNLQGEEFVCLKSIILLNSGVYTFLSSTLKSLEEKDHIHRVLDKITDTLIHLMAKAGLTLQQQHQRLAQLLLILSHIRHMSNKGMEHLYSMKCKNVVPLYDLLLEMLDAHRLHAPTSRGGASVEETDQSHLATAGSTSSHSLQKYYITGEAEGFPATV

Ebolavirus [6] = test: Antiviral activity against Ebolavirus (pBDBV) assessed as inhibition of viral entry; type: functional, organism-based
Ebolavirus [7] = test: Antiviral activity against Ebolavirus (pRESTV) assessed as inhibition of viral entry; type: functional, organism-based
Mengla dianlovirus = test: Antiviral activity against Mengla-virus assessed as inhibition of viral entry; type: functional
Ebolavirus [8] = test: Antiviral activity against Ebolavirus Tai Forest assessed as inhibition of viral entry; type: functional, organism-based
[9] = biological target: T1, Estrogen receptor (Homo sapiens); test: Antagonist activity at ER-alpha in human MCF-7:WS8 cells transfected with an estrogen response element assessed as suppression of estrogen-induced response incubated for 18 hrs by luciferase reporter gene assay; type: cell-based; settings: MCF7
[10] = test system: Vesicular stomatitis virus; test: Antiviral activity against vesicular stomatitis virus assessed as inhibition of viral entry; type: functional, organism-based
Influenza A virus = test: Antiviral activity against Influenza A virus H5N1 assessed as inhibition of viral entry; type: functional, organism-based

Row | Structure (SMILES) | IC50 (Marburgvirus [1]) | IC50 (Zaire ebolavirus) | selectivity ratio (in vitro [2]) | selectivity ratio (in vitro [3]) | CC50 (A549) | IC50 (Marburgvirus [4]) | Activity [5] | inhibition (Ebolavirus [6]) | inhibition (Ebolavirus [7]) | inhibition (Mengla dianlovirus) | inhibition (Ebolavirus [8]) | inhibition [9] | inhibition [10] | inhibition (Influenza A virus)
1 | COc1ccc2c(Oc3ccc(OCCN4CCCCC4)cc3)c(-c3ccc(Br)cc3)sc2c1 | 1250 nM | 630 nM | 37 | 74 |  |  |  |  |  |  |  |  |  | 
2 | CCC(=C(c1ccc(OCCN2CCCC2)cc1)c1ccc(OCCN2CCCC2)cc1)c1ccccc1 | 610 nM | 20 nM | 13 | 405 | 8.1 µM | 1560 nM | inactive |  |  |  |  |  |  | 
3 | CC/C(=C(/c1ccc(NCCN2CCOCC2)cc1)c1ccc(OCCN2CCOCC2)cc1)c1ccccc1 | 2180 nM | 230 nM | < 2 | 111 |  | 2900 nM |  |  |  |  |  |  |  | 
4 | CN(C)CCOc1ccc(/C(=C(/CCCl)c2ccccc2)c2ccccc2)cc1 [TOREMIFENE] | 2600 nM | 70 nM | 6 | 229 |  | 3900 nM |  | Active | Active | Active | Active |  |  | 
5 | CCC(c1ccccc1)C(O)(c1ccc(OCCN(C)C)cc1)c1cccc(O)c1 (stereo not drawn) | 4400 nM | 1740 nM | 9 | 22 |  |  |  |  |  |  |  |  |  | 
6 | CC/C(=C(/c1ccc(NC(=O)C2CCN(C)C2)cc1)c1ccc(OCCN2CCCC2)cc1)c1ccccc1 (stereo not drawn) | 720 nM | 20 nM | 30 | 590 | 11.8 µM | 960 nM | inactive | Active | Active | Active | Active | inactive | inactive | inactive
7 | CC/C(=C(/c1ccc(NC(=O)CN2CCN(C)CC2)cc1)c1ccc(OCCN2CCCC2)cc1)c1ccccc1 | 420 nM | 10 nM | 7 | 1400 |  | 360 nM |  |  |  |  |  |  |  | 
8 | CC/C(=C(/c1ccc(NC(=O)C2CCN(C3CCN(C)CC3)CC2)cc1)c1ccc(OCCN2CCCC2)cc1)c1ccccc1 | 2050 nM | 180 nM | 16 | 79 |  | 1070 nM |  |  |  |  |  |  |  | 
9 | Cc1ccccc1C(=O)c1sc2cc(O)ccc2c1Oc1ccc(OCCN2CC(CF)C2)cc1 | 3880 nM | 1020 nM | 7 | 27 |  | > 6250 nM |  |  |  |  |  |  |  | 
10 | Oc1ccc2c(Oc3ccc(OCCN4CCCCC4)cc3)c(-c3ccc(F)cc3)sc2c1 | 2040 nM | 980 nM | 7 | 15 |  |  |  |  |  |  |  |  |  | 
11 | CC/C(=C(/c1ccc(N)cc1)c1ccc(OCCN2CCCC2)cc1)c1ccccc1 | 1070 nM | 130 nM | 13 | 147 |  | 1780 nM |  |  |  |  |  |  |  | 
12 | COc1ccc(-c2sc3cc(OC)ccc3c2Oc2ccc(OCCN3CCC(CCNC(=O)CCCCNC(=O)OC(C)(C)C)CC3)cc2)cc1 | 600 nM | 800 nM | 76 | 57 |  |  |  |  |  |  |  |  |  | 
13 | CC/C(=C(/c1ccc(NC(=O)CN2CCOCC2)cc1)c1ccc(OCCN2CCOCC2)cc1)c1ccccc1 | 4230 nM | 740 nM | 13 | 40 |  | 3240 nM |  |  |  |  |  |  |  | 
14 | CC/C(=C(/c1ccc(NC(=O)C2CCN(C)CC2)cc1)c1ccc(OCCN2CCCC2)cc1)c1ccccc1 | 540 nM | 10 nM | 12 | 590 |  | 640 nM | inactive | Active | Active | Active | Active | inactive | inactive | inactive
15 | Cc1c(-c2ccc(O)cc2)nn(-c2ccc(O)cc2)c1-c1ccc(OCCN2CCCCC2)cc1 | 1190 nM | 1310 nM | 12 | 11 |  |  |  |  |  |  |  |  |  | 
16 | Oc1ccc2c(Oc3ccc(OCCN4CCCCC4)cc3)c(-c3ccccc3)sc2c1 | 670 nM | 300 nM | 20 | 45 |  | > 6250 nM |  |  |  |  |  |  |  | 
17 | CC/C(=C(/c1ccc(NC(=O)CN2CCOCC2)cc1)c1ccc(OCCN2CCCC2)cc1)c1ccccc1 | 1210 nM | 350 nM | 14 | 47 |  | 2800 nM |  |  |  |  |  |  |  | 
18 | CC/C(=C(/c1ccc(NC(=O)N2CCN(C)CC2)cc1)c1ccc(OCCN2CCCC2)cc1)c1ccccc1 | 750 nM | 30 nM | 11 | 740 |  | 1060 nM |  |  |  |  |  |  |  | 
19 | COc1ccc2c(Oc3ccc(OCCN4CCCCC4)cc3)c(-c3ccc(Br)cc3)[s+]([O-])c2c1 (stereo not drawn) | 1810 nM | 2140 nM | > 55 | > 47 |  |  |  |  |  |  |  |  |  | 
20 | Cc1cc(F)cc(C)c1C(=O)c1sc2cc(O)ccc2c1Oc1ccc(OCCN2CC(CF)C2)cc1 | 1870 nM | 1320 nM | 15 | 21 |  |  |  |  |  |  |  |  |  | 
21 | COc1ccc2c(Oc3ccc(OCCN4CCCCC4)cc3)c(-c3ccccc3)sc2c1 | 3180 nM | 260 nM | 8 | 88 |  | > 6250 nM |  |  |  |  |  |  |  | 
22 | Cc1c(-c2ccc(O)cc2)n(Cc2ccc(OCCN3CCCCCC3)cc2)c2ccc(O)cc12 [BAZEDOXIFENE] | 3830 nM | 2240 nM | 6 | 10 |  |  |  |  |  |  |  |  |  | 
23 | COc1ccc2c(c1)CCC(c1ccccc1)=C2c1ccc(OCCN2CCCC2)cc1 [NAFOXIDINE] | 1300 nM | 100 nM | 6 | 82 |  | > 6250 nM |  |  |  |  |  |  |  | 
24 | Nc1ccc(-c2sc3cc(O)ccc3c2Oc2ccc(OCCN3CCCCC3)cc2)cc1 | 1450 nM | 130 nM | > 69 | > 770 |  | > 6250 nM | inactive |  |  |  |  |  |  | 
25 | OCCOc1ccc(/C(=C(/CCCl)c2ccccc2)c2ccccc2)cc1 [OSPEMIFENE] | 34400 nM | 3800 nM | < 1 | 7 |  |  |  |  |  |  |  |  |  | 
26 | CC1=C(c2ccc(O)cc2)[C@H](c2ccc(OCCN3CCCCC3)cc2)Oc2ccccc21 | 900 nM | 1500 nM | 19 | 11 |  |  |  |  |  |  |  |  |  | 
27 | CCNCCc1ccc(CN(CC)c2cc(OC)ccc2[C@@H]2CCc3cc(O)ccc3C2)cc1 [ELACESTRANT] | 1300 nM | 240 nM | 8 | 44 |  |  |  |  |  |  |  |  |  | 
28 | CC/C(=C(/c1ccc(NC(=O)CC2CCN(C)CC2)cc1)c1ccc(OCCN2CCCC2)cc1)c1ccccc1 | 620 nM | 6 nM | 33 | 1400 |  | 870 nM |  |  |  |  |  |  |  | 
29 | CC/C(=C(/c1ccc(NCCN2CCCC2)cc1)c1ccc(OCCN2CCCC2)cc1)c1ccccc1 | > 12500 nM | 330 nM | 18 | 79 |  | > 25000 nM |  |  |  |  |  |  |  | 
